{"source": "paper PMC3597608", "about": "“Yellow Fluorescent Protein-Based Assay to Measure GABAA Channel Activation and Allosteric Modulation in CHO-K1 Cells” (PLoS ONE, 2013)", "key": {"human GABAA α2β3γ2": {"biological_target": "T1, human GABAA α2β3γ2 (Homo sapiens, UniProt P18507+P28472+P47869)", "T1 construct": "expressed in transfected cells; host or cells: CHO-K1 (ATCC, CCL-61), transient electroporation with MaxCyte STX, cryopreserved assay-ready cells", "T1 sequence (P47869 29-451)": "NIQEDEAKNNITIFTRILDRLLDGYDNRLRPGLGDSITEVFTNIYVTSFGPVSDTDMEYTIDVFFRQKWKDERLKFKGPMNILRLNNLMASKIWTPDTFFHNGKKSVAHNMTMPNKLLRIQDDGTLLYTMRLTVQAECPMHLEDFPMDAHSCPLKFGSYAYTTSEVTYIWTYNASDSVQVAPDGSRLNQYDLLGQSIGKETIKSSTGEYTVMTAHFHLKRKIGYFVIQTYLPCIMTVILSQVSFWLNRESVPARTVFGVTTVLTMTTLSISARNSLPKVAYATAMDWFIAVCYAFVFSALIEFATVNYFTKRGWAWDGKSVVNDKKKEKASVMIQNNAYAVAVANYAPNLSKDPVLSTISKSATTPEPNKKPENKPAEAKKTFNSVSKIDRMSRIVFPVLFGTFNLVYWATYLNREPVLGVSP", "T1 sequence (P28472 26-473)": "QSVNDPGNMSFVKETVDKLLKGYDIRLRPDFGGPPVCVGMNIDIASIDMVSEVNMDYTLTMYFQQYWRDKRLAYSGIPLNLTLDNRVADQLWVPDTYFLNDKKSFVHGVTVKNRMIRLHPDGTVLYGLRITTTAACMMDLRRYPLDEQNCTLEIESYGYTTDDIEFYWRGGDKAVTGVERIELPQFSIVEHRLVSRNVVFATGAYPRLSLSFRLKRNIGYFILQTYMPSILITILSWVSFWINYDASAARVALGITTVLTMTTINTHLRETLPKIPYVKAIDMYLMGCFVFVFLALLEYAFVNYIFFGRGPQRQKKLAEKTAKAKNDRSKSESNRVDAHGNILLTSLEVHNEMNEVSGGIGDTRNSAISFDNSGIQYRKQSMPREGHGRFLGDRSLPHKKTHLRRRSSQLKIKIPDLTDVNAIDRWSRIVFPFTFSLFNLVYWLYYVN", "T1 sequence (P18507 40-467 isoform P18507-1 limits assumed)": "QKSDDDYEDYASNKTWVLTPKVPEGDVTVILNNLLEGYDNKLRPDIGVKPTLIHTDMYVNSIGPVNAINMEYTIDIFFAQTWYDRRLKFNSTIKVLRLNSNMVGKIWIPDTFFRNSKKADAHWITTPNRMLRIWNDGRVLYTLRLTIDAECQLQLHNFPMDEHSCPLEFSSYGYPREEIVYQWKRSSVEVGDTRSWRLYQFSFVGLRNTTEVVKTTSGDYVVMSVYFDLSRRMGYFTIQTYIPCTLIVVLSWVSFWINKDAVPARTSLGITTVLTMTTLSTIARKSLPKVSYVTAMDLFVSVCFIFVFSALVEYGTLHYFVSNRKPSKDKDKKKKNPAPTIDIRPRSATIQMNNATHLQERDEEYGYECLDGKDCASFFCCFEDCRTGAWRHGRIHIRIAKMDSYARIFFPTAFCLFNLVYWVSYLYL", "assay": "cell-based", "assay_type": "cell-based", "description": "The cDNA of YFP (Genbank accession number AY818378) with H148Q and I152L mutations was inserted into the pcDNA3.1 vector using 5′ BamHI and 3′ NotI sites. Human GABAA subunits α2, β3 and γ2 (Genbank accession numbers; α2 NM_000807, β3 NM_000814, γ2 NM_000816) were inserted into pGen-IRES-neo2 vectors using NotI 5′ and 3′ sites.\nCHO-K1 cell line (ATCC, CCL-61) was cultured in Ham's F-12 medium supplemented with 10% fetal bovine serum and incubated at 37°C and 5% CO2. Transient transfection was performed using MaxCyte STX electroporation instrument (MaxCyte, Inc.) with CHO cell line specific electroporation protocol. The cells were split one day prior to electroporation to ensure that cells were in the log phase growth at time of transfection. Cells were harvested with Accutase (PAA Laboratories), pelleted at 250 g for 10 minutes, rinsed with MaxCyte Electroporation Buffer (MaxCyte, Inc.), pelleted again and resuspended in MaxCyte Electroporation Buffer at a density of 1×10^8 cells/ml. CHO-K1 cells were electroporated simultaneously with four plasmids using a total amount of 300 µg DNA per 1×10^8 cells; YFP-H148Q/I152L (150 µg) and GABAA (72.5 µg α2, […] and 72.5 µg γ2) plasmids. Following electroporation, cells were incubated at 37°C and 5% CO2 for 20 minutes to recover. Cells were then diluted in culture medium and centrifuged 250 g for 10 minutes. Pelleted cells were resuspended to 5–10×10^6 cells/ml in Ham's F12 with 20% fetal bovine serum and 10% DMSO, and cryopreserved using controlled-rate cryo containers (Nalgene, Thermo Scientific). Cryopreserved assay-ready cells were used for all experiments.\nCryopreserved transiently transfected cells were thawed and plated in 384-well poly-D-lysine-coated plates at a density of 15000 cells/well using a Multidrop Combi Reagent Dispenser (Thermo Scientific). After 24 h incubation at 37°C and 5% CO2, cells were washed three times on an ELx405 Select Deep Well Microplate Washer (BioTEK), exchanging 50 µl culture medium with 30 µl HBSS buffer supplemented with 20 mM Hepes. Plates were incubated with buffer for 1 h at 37°C and 5% CO2. Cell plates were assayed on a FLIPR Tetra (Molecular Devices) using excitation filter of 470–495 nm and emission filter of 515–575 nm. Starting with 30 µl buffer in each well, cells were pre-incubated with 10 µl compound for 15 minutes. […] Compounds were initially solubilized to a concentration of 10 mM in DMSO and then diluted in HBSS buffer with 20 mM Hepes. Final DMSO concentration in the assay was 0.02% for modulators and at 1% for Picrotoxin and Bicuculline.\nData at 1–10 s was adjusted to a baseline of 100% and results were then extracted as % quench at 120 s. % quench is defined as (Finit – Ffinal)/Finit*100 where Finit and Ffinal are the initial and final values of fluorescence respectively. […] Curve fits were performed using least-squares fitting routine (GraphPad Prism 5, GraphPad Software Inc.).\nThe 95% confidence interval was calculated as 2× this standard error. Taking the anti-log converts this to a fold change (ratio) between two EC50 values."}, "[1]": {"test_system": "α2β3γ2 ion channel subtype", "design": "method as in PMID 19090692", "conditions": "VSD assay; cited from earlier work"}, "GABA α2β3γ2": {"test_system": "GABA α2β3γ2", "design": "method as in PMID 14680756, PMID 16183706", "conditions": "mouse fibroblast L(tk−) cells; cited from earlier work"}, "[2]": {"conditions": "1 µM modulator, p<0.05, difference in pEC50 ≥0.15 significant"}}, "note": "Like-named read-outs stand apart in the source and are kept apart here.", "data": [{"compound": "CCCN(CCC)C(=O)Cc1c(-c2ccc(Cl)cc2)nc2ccc(Cl)cn12", "note": "[Alpidem]", "values": [{"measurement": "allosteric effect on GABA", "setting": "human GABAA α2β3γ2; 1 µM modulator, 95% confidence", "result": "significant positive allosteric effect"}, {"measurement": "Significance 95% confidence of pEC50 difference vs GABA alone", "setting": "human GABAA α2β3γ2; [2]", "result": "Significant difference"}]}, {"compound": "CN1CCc2cc3c(cc2[C@H]1[C@@H]1OC(=O)c2c1ccc1c2OCO1)OCO3", "note": "[Bicuculline]", "values": [{"measurement": "IC50", "setting": "human GABAA α2β3γ2", "result": 2140, "unit": "nM"}]}, {"compound": "CN1C(=O)CC(=O)N(c2ccccc2)c2cc(Cl)ccc21", "note": "[Clobazam]", "values": [{"measurement": "allosteric effect on GABA", "setting": "human GABAA α2β3γ2; 1 µM modulator, 95% confidence", "result": "significant positive allosteric effect"}, {"measurement": "Significance 95% confidence of pEC50 difference vs GABA alone", "setting": "human GABAA α2β3γ2; [2]", "result": "Significant difference"}]}, {"compound": "O=C1CC(=O)N(c2ccccc2)c2cc(Cl)ccc2N1", "note": "[Desmethyl-clobazam]", "values": [{"measurement": "Significance 95% confidence of pEC50 difference vs GABA alone", "setting": "human GABAA α2β3γ2; [2]", "result": "non-significant"}]}, {"compound": "CN1C(=O)CN=C(c2ccccc2)c2cc(Cl)ccc21", "note": "[Diazepam]", "values": [{"measurement": "GABA EC50 shift", "setting": "human GABAA α2β3γ2", "result": 1.7, "unit": "fold"}, {"measurement": "Significance 95% confidence of pEC50 difference vs GABA alone", "setting": "human GABAA α2β3γ2", "result": "Significant difference"}, {"measurement": "allosteric effect on GABA", "setting": "human GABAA α2β3γ2", "result": "significant positive allosteric effect"}, {"measurement": "modulation of GABA EC20 quench", "setting": "human GABAA α2β3γ2", "result": "significant increase"}, {"measurement": "pEC50 difference (GABA with modulator vs GABA alone)", "setting": "[1]", "result": 0.41}]}, {"compound": "Cn1ncnc1COc1nn2c(-c3cc(F)ccc3F)nnc2cc1C(C)(C)C", "note": "[L-838417]", "values": [{"measurement": "allosteric effect on GABA", "setting": "human GABAA α2β3γ2; 1 µM modulator, 95% confidence", "result": "not able to detect any significant allosteric modulation"}, {"measurement": "Significance 95% confidence of pEC50 difference vs GABA alone", "setting": "human GABAA α2β3γ2; [2]", "result": "non-significant"}, {"measurement": "modulation of GABA signal", "setting": "[1]", "result": "detected modulation of GABA signal"}, {"measurement": "relative in vitro efficacy, potentiation of GABA EC20 compared to 100% response from chlordiazepoxide", "setting": "GABA α2β3γ2", "result": 34, "unit": "%"}]}, {"compound": "O=C1Nc2ccc(Cl)cc2C(c2ccccc2Cl)=NC1O", "note": "(centres unmarked) [Lorazepam]", "values": [{"measurement": "allosteric effect on GABA", "setting": "human GABAA α2β3γ2; 1 µM modulator, 95% confidence", "result": "significant positive allosteric effect"}, {"measurement": "Significance 95% confidence of pEC50 difference vs GABA alone", "setting": "human GABAA α2β3γ2; [2]", "result": "Significant difference"}]}, {"compound": "CCn1ncnc1COc1nn2c(-c3ccccc3F)nnc2cc1C(C)(C)C", "note": "[TPA-023, 7-(1,1-dimethylethyl)-6-(2-ethyl-2H-1,2,4-triazol-3-ylmethoxy)-3-(2-fluorophenyl)-1,2,4-triazolo z[4,3-b]pyridazine]", "values": [{"measurement": "allosteric effect on GABA", "setting": "human GABAA α2β3γ2; 1 µM modulator, 95% confidence", "result": "not able to detect any significant allosteric modulation"}, {"measurement": "Significance 95% confidence of pEC50 difference vs GABA alone", "setting": "human GABAA α2β3γ2; [2]", "result": "non-significant"}, {"measurement": "modulation of GABA EC20 quench", "setting": "human GABAA α2β3γ2; EC20 of GABA with 1 µM modulator, 10 mM I−", "result": "No significant change"}, {"measurement": "relative in vitro efficacy, potentiation of GABA EC20 compared to 100% response from chlordiazepoxide", "setting": "GABA α2β3γ2", "result": 11, "unit": "%"}]}, {"compound": "Picrotoxin", "values": [{"measurement": "effect on basal (agonist-independent) YFP quench", "setting": "human GABAA α2β3γ2; 100 µM, 15 min prior to buffer with different I− concentrations", "result": "reduced basal quench to background levels"}, {"measurement": "effect on YFP quench in cells activated with EC80 of GABA", "setting": "human GABAA α2β3γ2; 1 mM, EC80 of GABA in 10 mM NaI buffer", "result": "blocked YFP quench"}]}]}
